The record followed here is US12673022B2, “Drug delivery system using solution” (Kyoto University, priority 2018, dated 2026).

This assay deals with C57BL/6J mouse right lower limb gastrocnemius. Description: DNA mutation introduction efficiency using mRosa26 gRNA (T7E1 assay) after local administration. It is filed as in vivo. The following applies: Example 6; administration solution 2: 25 mM or 250 mM 2′-deoxycytidine, 6-phospho-D-gluconic acid, N-carbamyl-L-aspartic acid or 2-deoxy-D-glucose-6-phosphate, 533 mM sodium chloride; 50 μL once; Dunnett's test; FIG. 10. The procedure: Cas9 protein (20 μg), mRosa26 gRNA (5 μg), 10×PBS (5 μL) and a 2.0 M aqueous 2′-deoxycytidine solution (6.25 μL) were mixed so as to obtain an aqueous solution having final concentrations of 400 ng/μL Cas9 protein, 100 ng/μL mRosa26 gRNA, 533 mM sodium chloride and 250 mM 2′-deoxycytidine. The concentration of the resultant solution was adjusted to be 533 mM with a 5 M aqueous sodium chloride solution, diluted with UltraPure DNase/RNase-Free Distilled Water up to a liquid volume of 50 μL and incubated at normal temperature for 15 minutes. […] The Cas9 protein herein was subjected to buffer replacement with 250 mM sodium chloride by use of Amicon® Ultra 2 mL Centrifugal Filters and then put in use.
Cas9 protein (40 μg), mRosa26 gRNA (10 μg), 10×PBS (5 μL), and a […] compound stock solution (25 μL) were mixed so as to obtain final concentrations: 800 ng/μL Cas9 protein, 200 ng/μL mRosa26 gRNA, 533 mM sodium chloride and 250 mM compound. […]
To the right lower limb gastrocnemius of each of 9 weeks-old male C57BL/6J mice (CLEA Japan, Inc), administration solution 1 or administration solution 2 and PBS (50 μL) were administered. […] The resultant PCR product was purified by QIAquick PCR purification kit (QIAGEN), treated with T7 Endonuclease I (NEB) and analyzed by Agilent 4200 TapeStation (Agilent). […]
As shown in FIG. 10 and FIG. 11, to find statistical significant difference between GABA and each conditions of the compounds, Dunnett's multiple comparison test using DNA mutation introduction efficiency, Indel (%), and exon skipping efficiency, was carried out. It was determined that if P value is less than 0.05, these is a statistically significant difference. […]
A solution for transduction containing 2′-deoxycytidine as a compound (A3) and sodium chloride as the (B) salt was prepared. […] Administration solution 1 was locally administered to the mouse right lower limb gastrocnemius and the activity to cleave a target gene was evaluated. […]

Regarding `NC(=O)N[C@@H](CC(=O)O)C(=O)O` [N-Carbamyl-L-aspartic acid], the “Genome editing efficiency (indel (%)) compared to 250 mM GABA” value was “statistically significant results compared to GABA”.
